Reference: paper PMC9138389, “The Tarantula Toxin ω-Avsp1a Specifically Inhibits Human CaV3.1 and CaV3.3 via the Extracellular S3-S4 Loop of the Domain 1 Voltage-Sensor” (Biomedicines, 2022)
Where a SMILES comes first, the peptide text is derived from it. Bridges are numbered along the chain shown (N, C = ends).

Columns and labels:
[1] = tested on: CaV3; conditions: cited from earlier work
From the text: (§1) It is well documented that the three CaV3 subtypes participate differentially in a variety of physiological and pathological conditions. Selective pharmacological inhibition is therefore important for dissecting the pathophysiological functions of CaV3 channel subtypes and for the development of therapeutically useful subtype-selective inhibitors.

[2] = tested on: patients; conditions: used clinically as anti-epileptic drugs; cited from earlier work
From the text: as §1

[3] = biological target: T1, CaV3.1 (Homo sapiens, UniProt O43497); assay: Whole-cell voltage-clamp of CaV3.1 expressed in HEK-293 cells; assay type: cell-based
T1 construct: expressed in transfected cells; host or cells: HEK-293
Method: (§2) Human embryonic kidney (HEK) 293 cells were grown in Dulbecco’s modified Eagle’s medium (DMEM) containing 5% fetal bovine serum and penicillin/streptomycin at 37 °C in a 5% CO2 incubator. Cells were transiently transfected with 3 μg plasmid DNA using the calcium-phosphate method. Plasmids of Cav3.1, Cav3.2 or Cav3.3 were separately transfected into three individual plates of HEK-293 cells. After transfection, cells were incubated at 37 °C for 48 h prior to whole-cell voltage-clamp recordings.
(§3) Patch pipettes with a tip resistance of 2.8~3.5 MΩ were pulled from borosilicate glass capillary tubes (Warner Instruments, Holliston, MA, USA) using a P-97 Flaming-Brown type micropipette puller (Sutter Instrument, Novato, CA, USA). Ionic currents were recorded using an Axon Multiclamp 700B microelectrode amplifier (Molecular Devices, San Jose, CA, USA). The sampling frequency for acquisition was 50 kHz and data were low-pass filtered at 2 kHz. Voltage and current commands and digitisation of membrane voltages and currents were controlled using a Digidata 1440A interfaced with Clampex 10.4 (Molecular Devices, San Jose, CA, USA). Data were analysed using pCLAMP10.4 software (Molecular Devices, San Jose, CA, USA).
(§4) To measure CaV3 currents, cells were incubated with the following bath solution (in mM): 145 TEA-Cl, 5 CaCl2, 3 CsCl, 1 MgCl2, 5 glucose, and 10 HEPES, adjusted to pH 7.4 with TEA-OH, osmolarity ~300 mOsm. The pipette solution was as follows (in mM): 130 CsCl, 20 HEPES, 10 EGTA, 5 MgCl2, 3 Mg-ATP, and 0.3 Tris-GTP, adjusted to pH 7.3 with CsOH, osmolarity ~310 mOsm. All recordings were performed at room temperature (21–24 °C). For Cav3.1- or Cav3.2-transfected cells, their membrane potentials were initially held at −90 mV for 20 ms and then depolarized to −30 mV for 150 ms. […] The peak values of Cav3 currents were recorded before and after addition of venom fractions or synthetic peptide. […] The inhibition was calculated by dividing the toxin-reduced peak amplitudes by the peak amplitudes before additions of the toxin.

[4] = biological target: T2, CaV3.2 (Homo sapiens, UniProt O95180); assay: Whole-cell voltage-clamp of CaV3.2 expressed in HEK-293 cells; assay type: cell-based
T2 construct: expressed in transfected cells; host or cells: HEK-293
Method: as §2, §3, §4

[5] = biological target: T3, CaV3.3 (Homo sapiens, UniProt Q9P0X4); assay: Whole-cell voltage-clamp of CaV3.3 expressed in HEK-293 cells; assay type: cell-based
T3 construct: expressed in transfected cells; host or cells: HEK-293
Method: as §2, §3, §4

[6] = Solubility limit in electrophysiology; assay type: physicochemical; conditions: synthetic ω-Avsp1a; working concentration could not be increased above 25 μM
[7] = synthetic ω-Avsp1a, 10, 5, 1, and 0.1 μM, Hill equation fit, HEK-293

T2 sequence (O95180 whole entry): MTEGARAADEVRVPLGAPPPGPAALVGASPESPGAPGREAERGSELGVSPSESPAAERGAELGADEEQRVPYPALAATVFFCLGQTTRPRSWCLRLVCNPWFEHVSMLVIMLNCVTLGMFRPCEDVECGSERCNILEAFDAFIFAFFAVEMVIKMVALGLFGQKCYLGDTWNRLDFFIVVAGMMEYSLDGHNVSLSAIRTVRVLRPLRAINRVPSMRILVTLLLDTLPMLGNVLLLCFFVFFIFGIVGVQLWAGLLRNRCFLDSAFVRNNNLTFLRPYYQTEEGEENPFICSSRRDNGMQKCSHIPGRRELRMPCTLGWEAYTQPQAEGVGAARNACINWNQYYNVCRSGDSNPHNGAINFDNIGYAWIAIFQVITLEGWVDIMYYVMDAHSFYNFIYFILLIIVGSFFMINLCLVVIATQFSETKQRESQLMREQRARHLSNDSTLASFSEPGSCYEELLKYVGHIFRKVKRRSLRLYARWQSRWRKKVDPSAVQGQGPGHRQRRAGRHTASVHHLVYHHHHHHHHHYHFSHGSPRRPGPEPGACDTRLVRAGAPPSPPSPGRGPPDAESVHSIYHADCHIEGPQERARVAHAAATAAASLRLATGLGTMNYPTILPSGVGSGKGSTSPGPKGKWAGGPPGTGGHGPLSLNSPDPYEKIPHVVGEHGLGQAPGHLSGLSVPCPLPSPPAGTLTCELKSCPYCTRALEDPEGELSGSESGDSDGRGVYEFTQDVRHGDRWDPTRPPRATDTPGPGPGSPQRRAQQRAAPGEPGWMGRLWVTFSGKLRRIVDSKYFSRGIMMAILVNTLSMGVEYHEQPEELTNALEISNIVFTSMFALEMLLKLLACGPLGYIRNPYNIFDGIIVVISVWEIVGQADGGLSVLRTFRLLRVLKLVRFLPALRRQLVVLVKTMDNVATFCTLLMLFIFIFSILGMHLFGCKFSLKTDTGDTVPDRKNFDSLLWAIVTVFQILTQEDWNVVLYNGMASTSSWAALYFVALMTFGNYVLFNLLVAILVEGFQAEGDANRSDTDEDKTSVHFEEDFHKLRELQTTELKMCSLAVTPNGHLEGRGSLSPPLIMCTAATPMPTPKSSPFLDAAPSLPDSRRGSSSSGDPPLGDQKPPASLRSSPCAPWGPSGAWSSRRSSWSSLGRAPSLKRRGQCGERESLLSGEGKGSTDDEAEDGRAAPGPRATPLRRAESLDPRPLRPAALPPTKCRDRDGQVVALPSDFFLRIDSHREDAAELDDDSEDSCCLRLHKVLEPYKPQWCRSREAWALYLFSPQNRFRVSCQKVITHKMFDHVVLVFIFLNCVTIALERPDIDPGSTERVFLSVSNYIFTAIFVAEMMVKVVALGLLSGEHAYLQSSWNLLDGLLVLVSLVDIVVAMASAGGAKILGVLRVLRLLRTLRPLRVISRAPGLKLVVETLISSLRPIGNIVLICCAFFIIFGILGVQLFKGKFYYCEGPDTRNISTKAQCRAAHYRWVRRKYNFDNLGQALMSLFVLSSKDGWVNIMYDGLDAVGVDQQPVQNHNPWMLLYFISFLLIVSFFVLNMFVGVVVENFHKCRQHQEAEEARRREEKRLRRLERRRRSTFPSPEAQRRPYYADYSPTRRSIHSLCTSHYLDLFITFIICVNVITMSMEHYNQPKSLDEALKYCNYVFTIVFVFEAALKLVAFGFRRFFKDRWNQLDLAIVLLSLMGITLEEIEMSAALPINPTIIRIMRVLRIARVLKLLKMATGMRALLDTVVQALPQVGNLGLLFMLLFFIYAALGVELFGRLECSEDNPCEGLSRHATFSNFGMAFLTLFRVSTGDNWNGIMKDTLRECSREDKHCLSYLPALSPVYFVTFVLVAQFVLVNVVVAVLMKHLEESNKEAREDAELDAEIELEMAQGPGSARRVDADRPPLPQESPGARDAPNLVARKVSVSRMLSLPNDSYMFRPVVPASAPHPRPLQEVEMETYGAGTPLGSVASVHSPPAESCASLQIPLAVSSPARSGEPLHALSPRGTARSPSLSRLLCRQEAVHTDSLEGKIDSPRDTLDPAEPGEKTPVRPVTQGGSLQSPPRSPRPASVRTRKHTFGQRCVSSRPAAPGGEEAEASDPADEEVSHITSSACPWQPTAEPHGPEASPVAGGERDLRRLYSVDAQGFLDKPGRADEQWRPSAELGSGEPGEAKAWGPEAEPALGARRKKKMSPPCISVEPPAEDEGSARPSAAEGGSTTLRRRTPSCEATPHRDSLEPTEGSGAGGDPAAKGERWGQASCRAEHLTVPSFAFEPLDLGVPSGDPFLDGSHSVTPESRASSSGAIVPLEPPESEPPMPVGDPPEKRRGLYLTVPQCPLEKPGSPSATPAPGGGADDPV
T3 sequence (Q9P0X4 whole entry): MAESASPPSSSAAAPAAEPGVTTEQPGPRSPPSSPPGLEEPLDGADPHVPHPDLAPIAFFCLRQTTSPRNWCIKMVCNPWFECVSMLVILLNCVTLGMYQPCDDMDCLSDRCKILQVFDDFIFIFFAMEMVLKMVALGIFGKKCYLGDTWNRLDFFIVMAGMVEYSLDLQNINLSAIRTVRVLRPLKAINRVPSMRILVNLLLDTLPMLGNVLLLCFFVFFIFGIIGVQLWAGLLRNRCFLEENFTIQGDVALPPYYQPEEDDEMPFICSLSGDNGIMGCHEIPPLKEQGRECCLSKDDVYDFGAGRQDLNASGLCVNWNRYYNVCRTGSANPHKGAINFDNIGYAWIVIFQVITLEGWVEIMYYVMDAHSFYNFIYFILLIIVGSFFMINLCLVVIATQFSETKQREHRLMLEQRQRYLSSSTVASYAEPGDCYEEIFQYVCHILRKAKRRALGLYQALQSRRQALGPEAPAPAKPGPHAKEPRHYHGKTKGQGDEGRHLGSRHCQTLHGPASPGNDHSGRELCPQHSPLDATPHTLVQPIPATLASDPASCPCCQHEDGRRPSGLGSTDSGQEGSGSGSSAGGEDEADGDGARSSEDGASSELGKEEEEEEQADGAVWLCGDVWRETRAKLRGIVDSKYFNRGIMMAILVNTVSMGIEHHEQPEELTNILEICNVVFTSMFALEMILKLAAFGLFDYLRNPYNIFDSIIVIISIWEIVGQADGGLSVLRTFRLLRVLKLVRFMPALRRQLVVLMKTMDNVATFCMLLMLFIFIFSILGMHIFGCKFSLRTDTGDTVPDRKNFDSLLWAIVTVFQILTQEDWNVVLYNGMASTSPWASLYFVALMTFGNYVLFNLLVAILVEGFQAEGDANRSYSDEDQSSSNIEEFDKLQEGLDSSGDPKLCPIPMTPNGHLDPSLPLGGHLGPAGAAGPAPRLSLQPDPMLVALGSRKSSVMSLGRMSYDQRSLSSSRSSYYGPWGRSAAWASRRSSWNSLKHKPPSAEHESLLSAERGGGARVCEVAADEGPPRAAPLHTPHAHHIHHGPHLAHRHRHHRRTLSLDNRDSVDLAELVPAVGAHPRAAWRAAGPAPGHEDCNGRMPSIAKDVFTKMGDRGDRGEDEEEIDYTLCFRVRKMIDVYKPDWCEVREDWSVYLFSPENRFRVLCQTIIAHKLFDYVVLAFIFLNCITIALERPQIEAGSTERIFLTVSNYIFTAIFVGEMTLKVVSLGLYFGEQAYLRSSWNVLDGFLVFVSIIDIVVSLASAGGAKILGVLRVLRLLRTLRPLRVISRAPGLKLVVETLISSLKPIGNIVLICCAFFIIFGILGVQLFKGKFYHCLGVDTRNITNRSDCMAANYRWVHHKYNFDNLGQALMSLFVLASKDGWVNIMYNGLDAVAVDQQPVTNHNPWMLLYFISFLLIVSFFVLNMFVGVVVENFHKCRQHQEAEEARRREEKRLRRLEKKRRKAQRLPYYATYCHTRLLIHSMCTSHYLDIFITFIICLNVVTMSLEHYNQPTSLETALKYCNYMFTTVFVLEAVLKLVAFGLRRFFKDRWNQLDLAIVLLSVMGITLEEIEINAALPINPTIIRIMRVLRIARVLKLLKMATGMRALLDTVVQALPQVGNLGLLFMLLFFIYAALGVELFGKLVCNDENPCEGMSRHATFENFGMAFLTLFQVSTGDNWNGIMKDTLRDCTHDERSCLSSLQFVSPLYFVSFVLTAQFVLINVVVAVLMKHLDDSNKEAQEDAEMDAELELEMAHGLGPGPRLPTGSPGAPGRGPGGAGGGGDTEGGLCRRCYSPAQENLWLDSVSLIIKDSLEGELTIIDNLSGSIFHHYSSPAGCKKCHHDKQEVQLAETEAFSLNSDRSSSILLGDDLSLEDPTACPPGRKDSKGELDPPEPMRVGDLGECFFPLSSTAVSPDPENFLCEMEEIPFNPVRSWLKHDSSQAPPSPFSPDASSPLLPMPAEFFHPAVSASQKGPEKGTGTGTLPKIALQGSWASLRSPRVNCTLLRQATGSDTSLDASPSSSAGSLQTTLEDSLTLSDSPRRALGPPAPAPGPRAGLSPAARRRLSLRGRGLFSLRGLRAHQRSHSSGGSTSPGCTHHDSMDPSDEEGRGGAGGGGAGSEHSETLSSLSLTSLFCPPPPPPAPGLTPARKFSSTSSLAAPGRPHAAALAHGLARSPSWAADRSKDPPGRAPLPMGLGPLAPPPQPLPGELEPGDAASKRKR

SMILES	CaV3 subtype specificity [1]	clinical effectiveness as anti-epileptic [2]	inhibition at 4.1 µM ([3]; HEK293, pH 7.4, native ω-Avsp1a, 4.1 μM, HEK-293, whole-cell, -90 to -30 mV, room temperature (21–24 °C), pH 7.4, 5 mM CaCl2, n = 5, read-out: current inhibition) [%]	inhibition at 10 µM ([3]; HEK293, synthetic ω-Avsp1a, 10 μM, HEK-293, whole-cell, -90 to -30 mV, n = 9, read-out: current inhibition) [%]	IC50 [3, 7] [µM]	IC50 [4] [µM]	inhibition at 4.1 µM ([4]; HEK293, pH 7.4, native ω-Avsp1a, 4.1 μM, HEK-293, whole-cell, -90 to -30 mV, room temperature (21–24 °C), pH 7.4, 5 mM CaCl2, n = 5, p < 0.001 vs. Cav3.1 and Cav3.3, read-out: current inhibition) [%]	inhibition at 25 µM ([4]; HEK293, synthetic ω-Avsp1a, 25 μM (section 3.6), read-out: current inhibition) [%]	inhibition at 4.1 µM ([5]; HEK293, pH 7.4, native ω-Avsp1a, 4.1 μM, HEK-293, whole-cell, -90 to -20 mV, room temperature (21–24 °C), pH 7.4, 5 mM CaCl2, n = 3, read-out: current inhibition) [%]	inhibition at 10 µM ([5]; HEK293, synthetic ω-Avsp1a, 10 μM, HEK-293, whole-cell, -90 to -20 mV, n = 9, read-out: current inhibition) [%]	IC50 [5, 7] [µM]	solubility [6]
CCC1(C)CC(=O)NC1=O (centres unmarked) [ethosuximide]	not subtype-specific	not effective in all patients	–	–	–	–	–	–	–	–	–	–
CC(C)C[C@@H]1NC(=O)[C@H](Cc2ccccc2)NC(=O)[C@H](CCCCN)NC(=O)[C@H](Cc2c[nH]cn2)NC(=O)[C@@H](NC(=O)[C@H](CC(=O)O)NC(=O)CN)CSSC[C@@H]2NC(=O)[C@@H]3CSSC[C@@H](C(=O)N[C@H](C(=O)N[C@@H](Cc4c[nH]c5ccccc45)C(=O)N[C@@H](CC(=O)O)C(=O)N[C@@H](Cc4c[nH]c5ccccc45)C(=O)N[C@H](C(=O)N[C@H](C(N)=O)C(C)C)[C@@H](C)O)C(C)C)NC(=O)[C@H](Cc4c[nH]c5ccccc45)NC(=O)CNC(=O)[C@H](Cc4c[nH]cn4)NC(=O)[C@H](CCCCN)NC(=O)[C@H](CCCNC(=N)N)NC(=O)[C@H](CO)NC(=O)[C@H](CSSC[C@H](NC(=O)[C@H](Cc4c[nH]c5ccccc45)NC(=O)CNC1=O)C(=O)N[C@@H](CCCNC(=N)N)C(=O)NCC(=O)N[C@@H](CCC(=O)O)C(=O)N1CCC[C@H]1C(=O)N[C@@H](CC(=O)O)C(=O)N1CCC[C@H]1C(=O)N3)NC(=O)[C@H](CO)NC(=O)[C@H](CC(C)C)NC(=O)[C@H](Cc1c[nH]cn1)NC(=O)[C@H](CCC(=O)O)NC2=O [ω-Avsp1a, ω-theraphotoxin-Avsp1a] (H-GDCHKFLGWCRGEPDPCCEHLSCSRKHGWCVWDWTV-NH2; disulfide 3-18, 10-23, 17-30)	–	–	90	90	5.06 ± 0.16	> 25	25	31	90	90	4.32 ± 1.21	limited solubility
NS(=O)(=O)Cc1noc2ccccc12 [zonisamide]	not subtype-specific	not effective in all patients	–	–	–	–	–	–	–	–	–	–
